molecular target: T1, c-MET (HGFR) (Homo sapiens, UniProt P08581); assay: HGFR Continuous-Coupled Spectrophotometric Assay; type: biochemical; conditions: Met-2 substrate peptide, 50 nM HGFR, 37° C.; read-out: c-Met Ki
T1 construct: purchased Upstate 14-526
Outline: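 Tyrosine kinase activity of 50 nM HGFR on the activation-loop Met-2 peptide, followed as NADH consumption at 340 nm over 10 min at 37 °C in a pyruvate kinase/LDH coupled system, HEPES pH 7.5 buffer with MgCl2 and DTT.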

T1 sequence (P08581 974-1390 limits assumed): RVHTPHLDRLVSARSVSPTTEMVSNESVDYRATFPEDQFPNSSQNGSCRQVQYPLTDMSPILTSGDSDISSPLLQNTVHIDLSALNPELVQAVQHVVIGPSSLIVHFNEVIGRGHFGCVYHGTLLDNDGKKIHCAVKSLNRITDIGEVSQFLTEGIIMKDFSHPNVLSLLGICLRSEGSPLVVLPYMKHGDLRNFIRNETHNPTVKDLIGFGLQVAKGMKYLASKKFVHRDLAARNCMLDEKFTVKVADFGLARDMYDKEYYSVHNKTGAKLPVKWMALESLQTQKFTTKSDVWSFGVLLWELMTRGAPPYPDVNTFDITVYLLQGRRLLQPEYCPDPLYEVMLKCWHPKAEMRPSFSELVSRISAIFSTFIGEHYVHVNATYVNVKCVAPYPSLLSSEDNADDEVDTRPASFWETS

Row | Ki [µM] | Structure (SMILES)
1 | 0.024 | CC(Oc1cc(-c2cnn(CC3CCN(C)CC3)c2)cnc1N)c1c(Cl)ccc(F)c1Cl (stereo not shown) [Example 89, 3-[1-(2,6-Dichloro-3-fluoro-phenyl)-ethoxy]-5-[1-(1-methyl-piperidin-4-ylmethyl)-1H-pyrazol-4-yl]-pyridin-2-ylamine]
2 | 0.034 | CNC(=O)C1CC(n2cc(-c3cnc(N)c(OC(C)c4c(Cl)ccc(F)c4Cl)c3)cn2)CN1 (stereo not shown) [Example 90, 4-(4-{6-Amino-5-[1-(2,6-dichloro-3-fluoro-phenyl)-ethoxy]-pyridin-3-yl}-pyrazol-1-yl)-pyrrolidine-2-carboxylic acid methylamide]
3 | 0.044 | CC(Oc1cc(-c2cnn(C3CNC(C(N)=O)C3)c2)cnc1N)c1c(Cl)ccc(F)c1Cl (stereo not shown) [Example 91, 4-(4-{6-Amino-5-[1-(2,6-dichloro-3-fluoro-phenyl)-ethoxy]-pyridin-3-yl}pyrazol-1-yl)-pyrrolidine-2-carboxylic acid amide]
4 | 0.069 | Cc1noc(C)c1Cn1cc(-c2cnc(N)c(OC(C)c3c(Cl)ccc(F)c3Cl)c2)cn1 (stereo not shown) [Example 93, 3-[1-(2,6-dichloro-3-fluorophenyl)ethoxy]-5-{1-[(3,5-dimethylisoxazol-4-yl)methyl]-1H-pyrazol-4-yl}pyridin-2-amine]
5 | 0.035 | CC(Oc1cc(-c2cnn(C3CCN(C(=O)OC(C)(C)C)CC3)c2)cnc1N)c1c(Cl)ccc(F)c1Cl (stereo not shown) [Example 94, tert-butyl 4-(4-{6-amino-5-[1-(2,6-dichloro-3-fluorophenyl)ethoxy]pyridin-3-yl}-1H-pyrazol-1-yl)piperidine-1-carboxylate]
6 | 0.01 | CC(Oc1cc(-c2cnn(C3CCN(C(=O)OCCO)CC3)c2)cnc1N)c1c(Cl)ccc(F)c1Cl (stereo not shown) [Example 95, 2-hydroxyethyl 4-(4-{6-amino-5-[1-(2,6-dichloro-3-fluorophenyl)ethoxy]pyridin-3-yl}-1H-pyrazol-1-yl)piperidine-1-carboxylate]

Further lines, the compound ahead of its results:

Row | Structure (SMILES) | Ki [µM]
7 | CCOC(=O)c1cnn(-c2cnc(N)c(OC(C)c3c(Cl)ccc(F)c3Cl)c2)c1 (stereo not shown) [Example 80, 1-{6-Amino-5-[1-(2,6-dichloro-3-fluoro-phenyl)-ethoxy]-pyridin-3-yl}-1H-pyrazole-4-carboxylic acid ethyl ester] | 2.05
8 | CC(Oc1cc(-c2cnn(CC3CCNCC3)c2)cnc1N)c1c(Cl)ccc(F)c1Cl (stereo not shown) [Example 81, 3-[1-(2,6-Dichloro-3-fluoro-phenyl)-ethoxy]-5-(1-piperidin-4-ylmethyl-1H-pyrazol-4-yl)-pyridin-2-ylamine] | 0.056
9 | CC(Oc1cc(-c2cnn(CCN3CCNCC3)c2)cnc1N)c1c(Cl)ccc(F)c1Cl (stereo not shown) [Example 82, 3-[1-(2,6-Dichloro-3-fluoro-phenyl)-ethoxy]-5-[1-(2-piperazin-1-yl-ethyl)-1H-pyrazol-4-yl]-pyridin-2-ylamine] | 0.047
10 | CC(Oc1cc(-c2cnn(CCO)c2)cnc1N)c1c(Cl)ccc(F)c1Cl (stereo not shown) [Example 83, 2-(4-{6-Amino-5-[1-(2,6-dichloro-3-fluoro-phenyl)-ethoxy]-pyridin-3-yl}-pyrazol-1-yl)-ethanol] | 0.046
11 | CC(Oc1cc(-c2cnn(CC3COCO3)c2)cnc1N)c1c(Cl)ccc(F)c1Cl (stereo not shown) [Example 84, 3-[1-(2,6-Dichloro-3-fluoro-phenyl)-ethoxy]-5-(1-[1,3]dioxolan-4-ylmethyl-1H-pyrazol-4-yl)-pyridin-2-ylamine] | 0.061
12 | CC(Oc1cc(-c2cnn(CC3CCN(C(=O)CO)CC3)c2)cnc1N)c1c(Cl)ccc(F)c1Cl (stereo not shown) [Example 85, 1-[4-(4-{6-Amino-5-[1-(2,6-dichloro-3-fluoro-phenyl)-ethoxy]-pyridin-3-yl}-pyrazol-1-ylmethyl)-piperidin-1-yl]-2-hydroxy-ethanone] | 0.03
13 | COC(=O)C1CC(n2cc(-c3cnc(N)c(OC(C)c4c(Cl)ccc(F)c4Cl)c3)cn2)CN1 (stereo not shown) [Example 88, 4-(4-{6-Amino-5-[1-(2,6-dichloro-3-fluoro-phenyl)-ethoxy]-pyridin-3-yl}-pyrazol-1-yl)-pyrrolidine-2-carboxylic acid methyl ester] | 0.034
